Test: Solubility or dispersibility of monomeric dye in vehicle systems
[1] = 50/50 acetone/water, 600 ppm dye
[2] = Methyl ethyl ketone, 600 ppm dye
[3] = Water with 1% ammonium hydroxide, 600 ppm dye
[4] = Water, 0.06% (by weight) or 600 ppm dye

Row | SMILES | Solubility or Dispersibility [1] | Solubility or Dispersibility (Acetone, 600 ppm dye) | Solubility or Dispersibility (Ethanol, 600 ppm dye) | Solubility or Dispersibility (Ethyl acetate, 600 ppm dye) | Solubility or Dispersibility (Methyl acetate, 600 ppm dye) | Solubility or Dispersibility [2] | Solubility or Dispersibility (Propylene glycol, 600 ppm dye) | Solubility or Dispersibility [3] | Solubility or Dispersibility [4]
1 | CN1C(=CC=CC=CC=CC2=[N+](C)c3ccc4ccccc4c3C2(C)C)C(C)(C)c2c1ccc1ccccc21.[O-][Cl+3]([O-])([O-])[O-] [Dye IV, 1,1,3,3,3,3-Hexamethyl-4,4,5,5-dibenzo-2,2-indotricarbocyanine perchlorate] | Soluble | Soluble | Soluble | Soluble | Soluble | Soluble | Soluble | Insoluble | Insoluble
2 | CCN1C(=CCC2CCC(C=CC3Sc4ccc(Cl)cc4N3CC)=C2N(c2ccccc2)c2ccccc2)Sc2ccc(Cl)cc21 (centres unmarked) [Dye V, 5,5-Dichloro-11-(diphenylamino)-3,3-diethyl-10,12-ethylenethiatri-carbocyanine perchlorate] | Soluble | Soluble | Soluble | Insoluble | Partially Soluble | Soluble |  | Insoluble | Insoluble
3 | CCCCC(CC)COC(=O)c1ccc(Oc2cccc3c2-c2nc-3nc3[nH]c(nc4nc(nc5[nH]c(n2)c2cccc(Oc6ccc(C(=O)OCC(CC)CCCC)cc6)c52)-c2cccc(Oc5ccc(C(=O)OCC(CC)CCCC)cc5)c2-4)c2cccc(Oc4ccc(C(=O)OCC(CC)CCCC)cc4)c32)cc1 [Dye III, 1(4),8(11),15(18),22(2S)-tetraks((4-(2-ethylhexoxy)carbonyl)phenoxy)phthalocyanine] | Insoluble | Partially Soluble | Insoluble | Soluble | Soluble | Partially Soluble | Insoluble | Insoluble | Insoluble
4 | COC(=O)c1cc([O][Al]2[n]3c4c5ccccc5c3/N=C3N=C(/N=c5/c6ccccc6/c([n]52)=N/C2=NC(=N\4)/c4ccccc42)c2ccccc2\3)cc(C(=O)OC)c1 [Dye II, Aluminum phthalocyanine(3,5-dicarbo-methoxyphenoxide)] | Partially Soluble | Partially Soluble | Soluble | Partially Soluble | Insoluble | Partially Soluble | Soluble | Insoluble | Insoluble

Reference: patent US20020107302A1, “Monomeric dye inkjet printing ink formulations for invisible marking / identification” (priority 2000, published 2002)
